Test results published in patent publication US20190345138A1, “HETEROCYCLIC AMIDES AS KINASE INHIBITORS” (GlaxoSmithKline Intellectual Property Development Limited, priority 2016, published 2019).
Entries after “also recorded” stand apart in the source; their conditions may differ.

Columns and labels:
db/db mice = test: glucose homeostasis in db/db mice; assay type: in vivo, mouse; conditions: 100 mg/kg/day in chow
Source text: We therefore investigated the ability of our small molecule RIPK1 inhibitor to improve glucose homeostasis in a diabetic animal model. Mice genetically deficient for the leptin receptor (db/db mice; Jackson Labs, BKS.Cg-Dock7m+/+Leprdb/J) are a widely used animal model of insulin resistance and diabetes. In our study, 4-week old male db/db mice were acclimated for a period of one week. At this point, when the mice were 5 weeks of age, the study was started. Mice were then divided into two group (n=10/group) and baseline measurements of non-fasted blood glucoses (using a glucometer) and body weight were taken. After baseline measurements, one group of mice was fed chow containing RIPK1 inhibitor (100 mg/kg/day, n=10) and the other remained on normal chow (n=10). Animals remained on these diets for 6 weeks. Additional measurements of non-fasted blood glucose and body weight were taken 2 and 4 weeks after study start. At week 8, mice were fasted overnight (16 hours) and fasted blood glucose and body weight were measured on the following day.

[1] = test system: Diet-induced obese, male mice C57Bl/6J; test: obesity, high fat diet-fed mice; assay type: in vivo, mouse
Source text: Inflammation is known to be a contributing factor in the pathogenesis of diabetes and obesity (Chen. et. al., International Journal of Endocrinology (2015)). We therefore explored the effect of blocking RIPK1 kinase activity on body weight in mice made obese by chronic feeding of a high fat diet (HFD). Diet-induced obese, male mice C57Bl/6J (Jackson Labs Stock#380050) arrived at 22 weeks of age, with average body weight of 40 g and acclimated for one week and maintained on HFD. Mice were then acclimated to oral gavage with water for 7 days before study start. Thereafter mice received RIPK 1 inhibitor (50 mg/kg, bid, n=9) or vehicle (bid, n=9) for 19 days. Food intake was measured twice weekly and body weight was measured daily throughout the study.

EMT-6 (breast) = test: syngeneic subcutaneous tumor model EMT-6; assay type: in vivo, mouse; conditions: RIP1i = Example 78 40 mg/kg p.o. BID x up to 21 days
Protocol: (§1) The efficacy of RIP1 inhibition was tested in 12 different murine (6-8 week old) syngeneic subcutaenous tumor models. RIP1 inhibition was tested as a single agent in all models, with anti-PD1 combination arms added to the five of the final models.
(§2) T and C are the mean tumor volume of the treated and control groups, respectively, on a given day. • 2) Tumor and plasma collection at study end for further investigation.
(§3) The 12 syngenic cell lines were maintained in vitro with different medium (indicated in Table C) at 37° C. in an atmosphere of 5% CO2 in air. The tumor cells were routinely subcultured twice weekly. The cells in an exponential growth phase were harvested and counted for tumor inoculation.
(§4) Each mouse was inoculated subcutaneously with tumor cells in 0.1 mL of PBS for tumor development. The treatments were started when the mean tumor size reached approximately 80-120 mm^3 (around 100 mm^3).

CT26 (colon) = test: syngeneic subcutaneous tumor model CT-26; assay type: in vivo, mouse; conditions: RIP1i = Example 78 40 mg/kg p.o. BID x up to 21 days
Protocol: as §1, §2, §3, §4

H22 (hepatoma) = test: syngeneic subcutaneous tumor model H-22; assay type: in vivo, mouse; conditions: RIP1i = Example 78 40 mg/kg p.o. BID x up to 21 days
Protocol: as §1, §2, §3, §4

LL/2 (Lewis lung) = test: syngeneic subcutaneous tumor model LL/2; assay type: in vivo, mouse; conditions: RIP1i = Example 78 40 mg/kg p.o. BID x up to 21 days
Protocol: as §1, §2, §3, §4

Renca (renal) = test: syngeneic subcutaneous tumor model Renca; assay type: in vivo, mouse; conditions: RIP1i = Example 78 40 mg/kg p.o. BID x up to 21 days
Protocol: as §1, §2, §3, §4

A20 (B lymphoma) = test: syngeneic subcutaneous tumor model A20; assay type: in vivo, mouse; conditions: RIP1i = Example 78 40 mg/kg p.o. BID x up to 21 days
Protocol: as §1, §2, §3, §4

B16F10 (melanoma) = test: syngeneic subcutaneous tumor model B16F10; assay type: in vivo, mouse; conditions: RIP1i = Example 78 40 mg/kg p.o. BID x up to 21 days
Protocol: as §1, §2, §3, §4

Pan02 (pancreatic) = test: syngeneic subcutaneous tumor model Pan02; assay type: in vivo, mouse; conditions: Pan02, PG21; RIP1i = Example 78 40 mg/kg p.o. BID, alone or with anti-PD1
Protocol: as §1, §2, §3, §4

MC38 (colon) = test: syngeneic subcutaneous tumor model MC38; assay type: in vivo, mouse; conditions: RIP1i = Example 78 40 mg/kg p.o. BID, alone or with anti-PD1
Protocol: as §1, §2, §3, §4

B16BL6 (melanoma) = test: syngeneic subcutaneous tumor model B16BL6; assay type: in vivo, mouse; conditions: RIP1i = Example 78 40 mg/kg p.o. BID, alone or with anti-PD1
Protocol: as §1, §2, §3, §4

RM-1(prostate) = test: syngeneic subcutaneous tumor model RM-1; assay type: in vivo, mouse; conditions: RIP1i = Example 78 40 mg/kg p.o. BID, alone or with anti-PD1
Protocol: as §1, §2, §3, §4

MBT2 (bladder) = test: syngeneic subcutaneous tumor model MBT2; assay type: in vivo, mouse; conditions: RIP1i = Example 78 40 mg/kg p.o. BID, alone or with anti-PD1
Protocol: as §1, §2, §3, §4

[2] = test system: Sharpin-deficient mice (cpdm); test: Sharpin-deficient mouse model of TNF-dependent dermatitis; assay type: in vivo; conditions: food-based 100 or 10 mg/kg/day
Protocol: Sharpin-deficient mice (cpdm) develop a spontaneous and severe TNF- and RIPK1-dependent dermatitis and multi-organ immunopathology around 6-8 weeks of age (S. B. Berger et al., Journal of Immunology, 192(12):5476-5480, (2014)). Mice were dosed with RIP1 inhibitors at the time of weaning (3-4 weeks of age) prior to the development of dermatitis lesions or therapeutically after the development of dermatitis lesions (about 6 weeks of age) using a food-based dosing regimen, such that mice (4-7 mice per group) received on average 100 mg/kg/day or 10 mg/kg/day of RIP1 inhibitor in diet or control diet. […] The character of the lesion was categorized according the following, in order of increasing severity, 0=none, 1=excoriation only or one small punctuated crust (≤2 mm), 2=multiple, small punctuate crusts or coalescing crust (>2 mm), 3=erosion or ulceration. The regions were identified as: Region 1: the head cranial to the medial pinna attachment and/or lesions affecting the mandible cranial to the sternum, Region 2: inner and outer pinna, dorsal cervical region caudal to the medial pinna attachment, dorsal and ventral thorax, and thoracic limbs, Region 3: any region caudal to the ribcage. A score for the regions affected was categorized per the following: 0=none; 1=Region 2 or 3; 2=Region 2 and 3; 3=Region 1+/−other affected regions. […]

For `N#Cc1cc(N2CCC(C(=O)N3N=CC[C@H]3c3cc(F)cc(F)c3)CC2)ncn1` [Example 78, (S)-6-(4-(5-(3,5-difluorophenyl)-4,5-dihydro-1H-pyrazole-1-carbonyl)piperidin-1-yl)pyrimidine-4-carbonitrile], the fasted blood glucose (db/db mice; week 8, fasted overnight (16 hours), versus normal chow) was “improves fasted blood glucose; also recorded: significantly lower”, the “non-fasted (fed) blood glucose” value (db/db mice; weeks 2 and 4, versus normal chow) was “improves fed blood glucose over time; also recorded: Reduced non-fasted blood glucose at weeks 2 and 4” and the body weight ([1]; 50 mg/kg bid PO for 19 days, versus vehicle) was “did not gain weight”. For the same molecule, the food intake ([1]; 50 mg/kg bid PO, day 2 and day 5, versus vehicle) was “initially reduced their food intake”, the “Mean tumor growth inhibition (TGI) at model termination” value (shortened to “Mean tumor growth inhibition (TGI)”) (EMT-6 (breast)) was 21% and the “Mean tumor growth inhibition (TGI)” value (CT26 (colon)) was 19%. The “Mean tumor growth inhibition (TGI)” value (H22 (hepatoma)) was 19%, the “Mean tumor growth inhibition (TGI)” value (LL/2 (Lewis lung)) was 22% and the “Mean tumor growth inhibition (TGI)” value (Renca (renal)) was 19%. For the same molecule, the “Mean tumor growth inhibition (TGI)” value (A20 (B lymphoma)) was 0.6%, the “Mean tumor growth inhibition (TGI)” value (B16F10 (melanoma)) was 20% and the “Mean tumor growth inhibition (TGI)” value (Pan02 (pancreatic)) was “PG21: 46%”. The “Mean tumor growth inhibition (TGI)” value (MC38 (colon)) was −16%, the “Mean tumor growth inhibition (TGI)” value (B16BL6 (melanoma)) was 16% and the “Mean tumor growth inhibition (TGI)” value (RM-1(prostate)) was −8%. The “Mean tumor growth inhibition (TGI)” value (MBT2 (bladder)) was −4%, the “development of severe dermatitis” value ([2]; pre-dosing from weaning (3-4 weeks of age)) was “complete protection from the development of severe dermatitis” and the established dermatitis ([2]; therapeutic dosing after development of lesions (about 6 weeks of age)) was “rescued established dermatitis”.
